Results as given in patent US11702416B2, “1H-pyrrolo[2,3-c]pyridin-7(6H)-ones and pyrazolo[3,4-c]pyridin-7(6H)-ones as inhibitors of BET proteins” (Incyte Corporation, priority 2014, dated 2023).

Tested on: KMS.12.BM cell line (human myeloma)
Assay: KMS.12.BM cell viability assay
Assay type: cell-based
Details: 3 days, Cell Titer-GLO ATP quantitation; concentration required for 50% cell death
Description: KMS.12.BM cell line (human myeloma) was purchased from JCRB (Osaka, Japan) and maintained in RPMI with 10% FBS culture medium. To measure the cytotoxic activity of the compounds through ATP quantitation, the KMS.12.BM cells are plated in the RPMI culture medium at 5000 cells/well/per 100 μL into a 96-well polystyrene clear black tissue culture plate (Greiner-bio-one through VWR, NJ), in the presence or absence of a concentration range of test compounds. After 3 days, […] Cell Titer-GLO Luminescent (Promega, Madison, Wis.) cell culture agent is added to each well for 10 minutes at room temperature to stabilize the luminescent signal. This determines the number of viable cells in culture based on quantitation of the ATP present, which signals the presence of metabolically active cells. Luminescence is measured with the Top Count 384 (Packard Bioscience through Perkin Elmer, Boston, Mass.). Compound inhibition is determined relative to cells cultured with no drug and the IC50 is reported as the compound concentration required for 50% cell death.

Cn1cc(-c2cc(S(C)(=O)=O)cc3c2NC2(CCC2)C(=O)N3)c2cc[nH]c2c1=O [Example 62, 8′-(6-methyl-7-oxo-6,7-dihydro-1H-pyrrolo[2,3-c]pyridin-4-yl)-6′-(methylsulfonyl)-1,4′-dihydro-3H-spiro[cyclobutane-1,2′-quinoxalin]-3′-one]
IC50: ≤ 1000 nM
